In publication PMC6820371, “Terbium-161 for PSMA-targeted radionuclide therapy of prostate cancer” (European Journal of Nuclear Medicine and Molecular Imaging, 2019):
“Also recorded” adds a separate entry of the source. Read-outs that look alike come from different tables or passages of the source. Marks after values point to notes of the source that are not given here.

Key:
[1] = system: PC-3 PIP tumor-bearing mice; settings: for Median Survival: control 19 days
Experimental: Athymic nude BALB/c mice were obtained from Charles River Laboratories (Sulzfeld, Germany) at the age of 5–6 weeks. […] Therapy studies were performed with mice inoculated with PC-3 PIP cells (4 × 10^6 cells in HBSS with Ca^2+/Mg^2+) on the right shoulder (Supplementary material).
Three groups of mice (n = 6) were injected with only saline, ^161Tb-PSMA-617 (5.0 MBq; 1 nmol/mouse), or ^161Tb-PSMA-617 (10 MBq; 1 nmol/mouse) at Day 0 of the therapy, 6 days after PC-3 PIP tumor cell inoculation (Table 1). The mice were monitored by measuring body weights and the tumor sizes every other day over 12 weeks. Mice were euthanized when pre-defined endpoint criteria were reached, or when the study was terminated at Day 84 (Supplementary material). The relative body weight (RBW) was defined as [BWx/ BW0], where BWx is the body weight in gram at a given day x, and BW0 the body weight in grams at Day 0. The tumor dimension was determined by measuring the longest tumor axis (L) and its perpendicular axis (W) with a digital caliper. The tumor volume (V) was calculated according to the eq. [V = 0.5 * (L * W^2)]. The relative tumor volume (RTV) was defined as [TVx/TV0], where TVx is the tumor volume in mm^3 at a given day x, and TV0 the tumor volume in mm^3 at Day 0.
The efficacy of the radionuclide therapy was assessed by the tumor growth delay (TGDx), which was calculated as the time required for the tumor volume to increase x-fold over the initial volume at Day 0. The tumor growth delay index [TGDIx = TGDx(T)/TGDx(C)] was calculated as the TGDx ratio of treated mice (T) over control mice (C) for a 2-fold (x = 2, TGD2) and 5-fold (x = 5, TGD5) increase of the initial tumor volume. Statistical analysis was performed by a one-way ANOVA with Tukey’s multiple comparison post-test using GraphPad Prism software (version 7). A value of p < 0.05 was considered statistically significant. The median survival was calculated by Kaplan–Meier curves using GraphPad Prism software (version 7).
Methods: The therapy was started at Day 0 by injecting mice with the radioligands, 6 days after PC-3 PIP tumor cell inoculation (4×10^6 cells in HBSS with Ca^2+/Mg^2+) on the right shoulder.
Endpoint criteria: Mice were euthanized when a predefined endpoint criterion was reached or when the study was finalized at Day 84. Endpoint criteria were defined as (i) body weight loss of >15%, (ii) a tumor volume of >800 mm^3 (iii) a combination of body weight loss of >10% and a tumor volume of >700 mm^3 or (iv) signs of unease and pain or a combination thereof.

PC-3 PIP tumor cells = assay: Cell survival assay (clonogenic assay); format: cell-based, human; settings: 0.05–5.0 MBq/mL, p < 0.05
[2] = system: PC-3 PIP tumor-bearing mice; assay: Therapy study - assessment of potential early side effects; format: in vivo; parameters: key to Histology: Bone marrow sternum / Histology: Sternum (bone) / Histology: Bone marrow femur / Histology: Femur and tibia (bone) / Histology: Salivary glands / Histology: Mandibular lymph node: NHAIR: no histological abnormality is recognized; IC: increased cellularity, myeloid lineage; SH: Sinus histiocytosis; LH: lymphoid hyperplasia; 1: minimal severity; 2: mild; 3: moderate; 4: marked; 5: severe; settings: for ALB (blood plasma) / ALP (blood plasma) / BUN (blood plasma) / CRE (blood plasma) / TBIL (blood plasma): at euthanasia; for Brain mass / Kidney mass / Liver mass / Spleen Mass: day of euthanasia; for Histology: Bone marrow femur / Histology: Bone marrow sternum / Histology: Femur and tibia (bone) / Histology: Mandibular lymph node / Histology: Salivary glands / Histology: Sternum (bone): individual mice M1-M6
Experimental: Potential early side-effects related to the exposure to radiation were evaluated by the assessment of absolute and relative (to body and to brain) organ weights, selected clinical chemistry plasma parameters including creatinine (CRE), blood urea nitrogen (BUN), alkaline phosphatase (ALP), total bilirubin (TBIL), and albumin (ALB), as well as via histological analysis of bone marrow and salivary glands. The data were analyzed for statistical significance (Supplementary material).
Body and organ mass and mass ratios: As a measure to identify undesired side effects, body weights were compared at the day when the first control mouse had to be euthanized (Day 18; Table S3). The relative body weight (RBW) and the relative tumor volume (RTV) were calculated as stated in the main manuscript. Kidneys, liver, spleen and brain were collected and weighed at the day of euthanasia when an endpoint was reached or at the end of the study at Day 84 (Table S3). The organ mass-to-body mass and the organ-mass-to-brain-mass ratios were calculated for kidneys, liver and spleen (Table S4). The average organ masses of mice from each group were analyzed for significance using a one-way ANOVA test with a Tukey’s post correction (GraphPad Prism software, version 7). A p-value of <0.05 was considered as statistically significant.
Blood plasma parameters: Blood was taken from the retrobulbar vein immediately before euthanasia for determination of blood plasma parameters. The values of creatinine (CRE), blood urea nitrogen (BUN), alkaline phosphatase (ALP), total bilirubin (BIL) and albumin (ALB) were determined in the plasma after centrifugation of the blood using a dry chemistry analyzer (DRI-CHEM 4000i, FUJIFILM, Japan) (Table S5). The average blood plasma parameters of each group were analyzed for significance using a one-way ANOVA test with a Tukey’s post correction (GraphPad Prism software, version 7). A p-value of <0.05 was considered as statistically significant.
Necropsy, tissue processing and histological examination: After euthanasia and exsanguination, mice were dissected and, after a full macroscopic examination, sternum, femur and salivary glands were quickly removed and fixed in 4% neutral-buffered formalin (Formafix, Hittnau, Switzerland). After adequate fixation, femoral and sternal bones were decalcified in 10% ethylenediamine tetraacetic acid over a period of 5 days. Both bones and the salivary glands were subsequently trimmed, dehydrated through graded alcohols and routinely paraffin wax embedded. Sections (3–5 µm) were prepared, mounted on glass slides and routinely stained with hematoxylin and eosin (HE). Microscopic findings in the HE-stained livers were classified with standard pathological nomenclature and grading system.

[3] = system: PSMA-negative PC-3 flu tumor cells; assay: Cell survival assay (clonogenic assay); format: cell-based; settings: 1 MBq/mL and higher, p > 0.05

O=C([O-])CN1CCN(CC(=O)[O-])CCN(CC(=O)NCC2CCC(C(=O)NC(Cc3ccc4ccccc4c3)C(=O)NCCCCC(NC(=O)NC(CCC(=O)O)C(=O)O)C(=O)O)CC2)CCN(CC(=O)[O-])CC1.[161Tb+3] (centres unmarked) [^161Tb-PSMA-617]
First mouse euthanized ([1]; 5.0 MBq/mouse): 30 days | Last mouse euthanized ([1]; 5.0 MBq/mouse): 66 days | TGDI2 ([1]; 5.0 MBq/mouse): 4.2 ± 1.2 | TGDI3 ([1]; 5.0 MBq/mouse): 2.5 ± 0.6 | Median Survival ([1]; 5.0 MBq/mouse): 36 days | First mouse euthanized ([1]; 10 MBq/mouse): 42 days | Mice still alive at the end of the study at Day 84 ([1]; 10 MBq/mouse, n = 6): two | Mice in which PC-3 PIP tumors disappeared entirely ([1]; 10 MBq/mouse, n = 6, over 12 weeks): two of the six; also recorded: two out of six | Median Survival ([1]; 10 MBq/mouse): 65 days | Last mouse euthanized ([1]; 10 MBq/mouse, study end at Day 84, 2 mice had not reached an endpoint): 84^1) Day | Reduction of tumor-cell survival compared to ^177Lu-PSMA-617 (PC-3 PIP tumor cells): significantly more effective | Body weight at Day 0 ([2]; 5.0 MBq): 17 ± 1.2 g | Body weight at Day 18 ([2]; 5.0 MBq): 17 ± 1.2 g | Body weight at Day of euthanasia ([2]; 5.0 MBq): 15 ± 1.7 g | Body weight over time ([2]; 5.0 MBq): body weight loss over time | Kidney-to-body ratio ([2]; 5.0 MBq): 0.014 ± 0.001 | Kidney-to-brain ratio ([2]; 5.0 MBq): 0.50 ± 0.11 | Liver-to-body ratios ([2]; 5.0 MBq): 0.048 ± 0.010 | Liver-to-brain ratios ([2]; 5.0 MBq): 1.8 ± 0.71 | Spleen-to-body ratios ([2]; 5.0 MBq): 0.004 ± 0.001 | Spleen-to-brain ratios ([2]; 5.0 MBq): 0.16 ± 0.05 | Undesired side-effects ([2]; 5.0 MBq and 10 MBq): no signs of undesired side-effects were detectable | ALB (blood plasma) ([2]; 5.0 MBq): 21 ± 1 g/L | ALP (blood plasma) ([2]; 5.0 MBq): 44 ± 1 U/L | BUN (blood plasma) ([2]; 5.0 MBq): 8.3 ± 0.50 mmol/L | CRE (blood plasma) ([2]; 5.0 MBq): <18 µmol/L | TBIL (blood plasma) ([2]; 5.0 MBq): 4 ± 1 µmol/L | Brain mass ([2]; 5.0 MBq): 371 ± 15 mg | Kidney mass ([2]; 5.0 MBq): 208 ± 19 mg | Liver mass ([2]; 5.0 MBq): 737 ± 143 mg | Spleen Mass ([2]; 5.0 MBq): 63 ± 13 mg | Histology: Bone marrow femur ([2]; 5 MBq): NHAIR | Histology: Bone marrow sternum ([2]; 5 MBq): NHAIR | Histology: Femur and tibia (bone) ([2]; 5 MBq): NHAIR | Histology: Mandibular lymph node ([2]; 5 MBq): NHAIR and SH 1 and LH 1 | Histology: Salivary glands ([2]; 5 MBq): NHAIR | Histology: Sternum (bone) ([2]; 5 MBq): NHAIR | Histological changes in the bone marrow and the salivary glands attributable to application ([2]; 5.0 and 10 MBq/mouse): no histological changes | Blood plasma parameters compared to control group ([2]; 5.0 and 10 MBq/mouse, p>0.05): did not show any significant differences | Body weight at Day 0 ([2]; 10 MBq): 18 ± 1.0*^3) g | Body weight at Day 18 ([2]; 10 MBq): 19 ± 1.2*^4) g | Body weight at Day of euthanasia ([2]; 10 MBq): 19 ± 1.6*^5) g | Body weight over time ([2]; 10 MBq): remained stable | Kidney-to-body ratio ([2]; 10 MBq): 0.014 ± 0.001 | Kidney-to-brain ratio ([2]; 10 MBq): 0.64 ± 0.09^*2) | Liver-to-body ratios ([2]; 10 MBq): 0.054 ± 0.002 | Liver-to-brain ratios ([2]; 10 MBq): 2.5 ± 0.87 | Spleen-to-body ratios ([2]; 10 MBq): 0.005 ± 0.001 | Spleen-to-brain ratios ([2]; 10 MBq): 0.23 ± 0.05^*3) | ALB (blood plasma) ([2]; 10 MBq): 19 ± 1 g/L | ALP (blood plasma) ([2]; 10 MBq): 54 ±15 U/L | BUN (blood plasma) ([2]; 10 MBq): 7.8 ± 1.3 mmol/L | CRE (blood plasma) ([2]; 10 MBq): <18 µmol/L | TBIL (blood plasma) ([2]; 10 MBq): 4 ± 1 µmol/L | Brain mass ([2]; 10 MBq): 402 ± 18 mg | Kidney mass ([2]; 10 MBq): 258 ± 41*^5) mg | Liver mass ([2]; 10 MBq): 994 ± 65*^5) mg | Spleen Mass ([2]; 10 MBq): 92 ± 22*^5) mg | Histology: Bone marrow femur ([2]; 10 MBq): NHAIR | Histology: Bone marrow sternum ([2]; 10 MBq): IC 1 and NHAIR | Histology: Femur and tibia (bone) ([2]; 10 MBq): NHAIR | Histology: Mandibular lymph node ([2]; 10 MBq): SH 2 LH 1 and SH 1 and LH 1 and NHAIR | Histology: Salivary glands ([2]; 10 MBq): NHAIR | Histology: Sternum (bone) ([2]; 10 MBq): NHAIR | Effect on survival of PC-3 flu cells compared to ^177Lu-PSMA-617 [3]: tendency of a more pronounced effect
